Where two headings read alike, the source gives them in different places.
What was measured:
[1] = Partition coefficient log Kow (n-octanol/water), shake-flask method; format: physicochemical; conditions: mean ± SD (n = 3 experiments)
Protocol: Before the partition coefficient is determined, the two solvents are mutually saturated at the temperature of the experiment. To do this, it is practical to shake two large stock bottles, one containing n-octanol and a sufficient quantity of water, and the other containing water and a sufficient quantity of n-octanol, for 24 hours on a mechanical shaker and then to let them stand long enough to allow the phases to separate.
The procedure of determination was the following: n-Octanol (2 mL) was placed in a test tube. Then an octanol solution of the chosen inhibitor (15 μL, 0.01 M) was added. Mixture was intensively shaken for 15 min. This mixture (1 mL) was placed into the cell, and its absorbance at the absorption maximum wavelength was measured. The reference solution was n-octanol. The value of absorbance corresponding to 100% of the chosen inhibitor in n-octanol was obtained. An n-octanol solution of the chosen inhibitor (0.01 M, 15 μL) was added into the mixture of n-octanol and water (1:1, total volume 4 mL). The mixture was intensively shaken for 15 min and then centrifuged (3,000 rpm, 10 min). One mL of the n-octanol layer was put into the cell, and its absorbance at the wavelength of absorption maximum was measured. The comparative solution was n-octanol again. The percentage content of chosen inhibitor in the octanol layer (%) was obtained. The n-octanol/water partition coefficient is defined as Pow = c1/c2, where c1 and c2 are molar concentrations of tested compounds in n-octanol and water. For each compound, at least three determinations were performed.

[2] = target: T1, acetylcholinesterase from electric eel (Electrophorus electricus, UniProt O42275); experiment: biochemical
T1 construct: purchased Sigma
T1 sequence (O42275 24-633): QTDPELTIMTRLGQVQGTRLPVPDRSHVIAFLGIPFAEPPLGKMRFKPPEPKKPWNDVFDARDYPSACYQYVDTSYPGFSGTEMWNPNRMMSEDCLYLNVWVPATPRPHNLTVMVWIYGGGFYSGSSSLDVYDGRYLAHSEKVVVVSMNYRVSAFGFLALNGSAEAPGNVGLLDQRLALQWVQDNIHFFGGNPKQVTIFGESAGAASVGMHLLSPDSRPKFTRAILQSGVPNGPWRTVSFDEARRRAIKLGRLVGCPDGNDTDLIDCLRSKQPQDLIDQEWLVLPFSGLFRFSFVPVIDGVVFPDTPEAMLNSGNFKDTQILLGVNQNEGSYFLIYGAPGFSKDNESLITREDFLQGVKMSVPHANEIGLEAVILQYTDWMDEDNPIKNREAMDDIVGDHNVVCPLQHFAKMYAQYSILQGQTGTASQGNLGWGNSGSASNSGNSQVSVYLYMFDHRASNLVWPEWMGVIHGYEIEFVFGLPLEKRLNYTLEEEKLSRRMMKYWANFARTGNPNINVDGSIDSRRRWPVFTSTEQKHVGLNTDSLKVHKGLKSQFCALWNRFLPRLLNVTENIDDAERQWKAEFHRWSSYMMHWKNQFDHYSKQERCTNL
Protocol: (§1) The ability of all tested compounds to inhibit acetylcholinesterase from electric eel (Electrophorus electricus L.) and butyrylcholinesterase from equine serum (both purchased from Sigma) was tested. […] The IC50 values were determined by the spectrophotometric Ellman’s method.
(§2) The Ellman’s method is a simple, rapid and direct method to determine the SH and –S–S– group content in proteins. This method is widely used for measuring of cholinesterase activity and effectivity of cholinesterase inhibitors. Cholinesterase activity is measured indirectly by quantifying the concentration of 5-thio-2-nitrobenzoic acid (TNB) ion formed in the reaction between the thiol reagent 5,5′-dithiobis-2-nitrobenzoic acid (DTNB) and thiocholine, a product of substrate (i.e., acetylthiocholine, ATCh) hydrolysis by the cholinesterase. All tested compounds were dissolved in dioxane (concentration 0.01 M) and then diluted in demineralized water (concentration 0.001 M and 0.0001 M). The procedure of determination of IC50 is in detail described in [49]. For determination of IC50 values the inhibition was determined at 12 different compound concentrations with three replicates.

[3] = target: T2, butyrylcholinesterase from equine serum (Equus caballus, UniProt P81908); experiment: biochemical
T2 construct: butyrylcholinesterase isolated from equine serum; purchased Sigma; host or cells: equine serum
T2 sequence (P81908 whole entry): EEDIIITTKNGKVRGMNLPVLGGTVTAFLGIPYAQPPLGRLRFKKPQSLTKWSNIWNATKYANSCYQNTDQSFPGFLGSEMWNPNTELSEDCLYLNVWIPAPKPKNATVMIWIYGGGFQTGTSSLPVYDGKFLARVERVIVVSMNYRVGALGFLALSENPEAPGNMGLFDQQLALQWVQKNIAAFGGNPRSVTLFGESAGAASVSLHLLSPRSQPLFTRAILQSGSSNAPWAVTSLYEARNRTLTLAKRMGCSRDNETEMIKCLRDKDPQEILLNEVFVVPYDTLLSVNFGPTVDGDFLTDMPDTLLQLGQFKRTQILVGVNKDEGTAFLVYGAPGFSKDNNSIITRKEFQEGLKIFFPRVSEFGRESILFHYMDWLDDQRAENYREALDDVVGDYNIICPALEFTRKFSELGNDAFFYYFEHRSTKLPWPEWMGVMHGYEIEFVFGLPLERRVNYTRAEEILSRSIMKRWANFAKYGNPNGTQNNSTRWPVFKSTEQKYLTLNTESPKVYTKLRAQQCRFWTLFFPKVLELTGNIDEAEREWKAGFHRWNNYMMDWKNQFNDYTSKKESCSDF
Protocol: as §1, §2

[4] = electric eel AChE, Ellman's method, mean ± SD (n = 3 experiments), read-out: AChE IC50
[5] = equine serum BChE, Ellman's method, mean ± SD (n = 3 experiments), read-out: BChE IC50

With `Cc1ccc(N2C(=O)C(=O)N([C@H](C)c3nc4ccc(F)cc4s3)C2=O)cc1Cl` [Compound 3h, 1-(3-Chloro-4-methylphenyl)-3-[(1R)-1-(6-fluoro-1,3-benzothiazol-2-yl)ethyl]imidazolidine-2,4,5-trione] the “log Kow” value [1] was 0.50 ± 0.02, the IC50 [2] was 15.5 ± 0.2 µM and the IC50 [3] was 17 ± 0.1 µM.

In the case of `C[C@H](c1nc2ccc(F)cc2s1)N1C(=O)C(=O)N(c2ccccc2)C1=O` [Compound 3a, 1-[(1R)-1-(6-Fluoro-1,3-benzothiazol-2-yl)ethyl]-3-phenylimidazolidine-2,4,5-trione], the IC50 [2, 4] is reported as 21.4 ± 0.19 µM and the IC50 [3, 5] is reported as 14.5 ± 0.21 µM.

Compound `CC(C)c1ccc(N2C(=O)C(=O)N([C@H](C)c3nc4ccc(F)cc4s3)C2=O)cc1` [Compound 3d, 1-(4-Isopropylphenyl)-3-[(1R)-1-(6-fluoro-1,3-benzothiazol-2-yl)ethyl]imidazolidine-2,4,5-trione] has an IC50 [2, 4] of 16.6 ± 0.29 µM and an IC50 [3, 5] of 1.66 ± 0.14 µM.

In the case of `COc1ccc(N2C(=O)C(=O)N([C@H](C)c3nc4ccc(F)cc4s3)C2=O)cc1` [Compound 3c, 1-(4-Methoxyphenyl)-3-[(1R)-1-(6-fluoro-1,3-benzothiazol-2-yl)ethyl]imidazolidine-2,4,5-trione], the “log Kow” value [1] is reported as 0.69 ± 0.02, the IC50 [2, 4] is reported as 22.4 ± 0.21 µM and the IC50 [3, 5] is reported as 13.2 ± 0.22 µM.

In the case of `C[C@H](c1nc2ccc(F)cc2s1)N1C(=O)C(=O)N(c2cc(Cl)cc(Cl)c2)C1=O` [Compound 3j, 1-(3,5-Dichlorophenyl)-3-[(1R)-1-(6-fluoro-1,3-benzothiazol-2-yl)ethyl]imidazolidine-2,4,5-trione], the “log Kow” value [1] is reported as 0.77 ± 0.03, the IC50 [2] is reported as 17 ± 0.38 µM and the IC50 [3] is reported as 29.5 ± 0.39 µM.

In the case of `C[C@H](c1nc2ccc(F)cc2s1)N1C(=O)C(=O)N(c2ccc(Cl)cc2)C1=O` [Compound 3e, 1-(4-Chlorophenyl)-3-[(1R)-1-(6-fluoro-1,3-benzothiazol-2-yl)ethyl]imidazolidine-2,4,5-trione], the IC50 [2] is reported as 13.8 ± 0.13 µM and the IC50 [3] is reported as 25.7 ± 0.29 µM.

In the case of `C[C@H](c1nc2ccc(F)cc2s1)N1C(=O)C(=O)N(Cc2ccccc2)C1=O` [Compound 3k, 1-Benzyl-3-[(1R)-1-(6-fluoro-1,3-benzothiazol-2-yl)ethyl]imidazolidine-2,4,5-trione], the “log Kow” value [1] is reported as 1.06 ± 0.09, the IC50 [2, 4] is reported as 18.6 ± 0.16 µM and the IC50 [3, 5] is reported as 12.6 ± 0.11 µM.

For `C[C@H](c1nc2ccc(F)cc2s1)N1C(=O)C(=O)N(c2cccc(C(F)(F)F)c2)C1=O` [Compound 3b, 1-(3-Trifluoromethylphenyl)-3-[(1R)-1-(6-fluoro-1,3-benzothiazol-2-yl)ethyl]imidazolidine-2,4,5-trione], the “log Kow” value [1] was 1.12 ± 0.15, the IC50 [2, 4] was 23.4 ± 0.28 µM and the IC50 [3, 5] was 17.4 ± 0.37 µM.

With `CC(C)c1cccc(C(C)C)c1N1C(=O)C(=O)N([C@H](C)c2nc3ccc(F)cc3s2)C1=O` [Compound 3g, 1-(2,6-Diisopropylphenyl)-3-[(1R)-1-(6-fluoro-1,3-benzothiazol-2-yl)ethyl]imidazolidine-2,4,5-trione] the “log Kow” value [1] was 0.98 ± 0.08, the IC50 [2, 4] was 15.1 ± 0.29 µM and the IC50 [3, 5] was 30.2 ± 0.45 µM.

With `C[C@H](c1nc2ccc(F)cc2s1)N1C(=O)C(=O)N(c2ccc(C#N)cc2)C1=O` [Compound 3f, 1-(4-Cyanophenyl)-3-[(1R)-1-(6-fluoro-1,3-benzothiazol-2-yl)ethyl]imidazolidine-2,4,5-trione] the “log Kow” value [1] was 0.41 ± 0.02, the “log Kow” value ([1]; listed as 4f) was “lowest lipophilicity” and the IC50 [2, 4] was 19.1 ± 0.27 µM. It also gave an IC50 [3, 5] of 10.5 ± 0.18 µM.
